Test results as given in patent publication US20190177284A1, “TETRAZOLYL-CONTAINING CYCLOPROPANECARBOXAMIDES” (Bayer Pharma Aktiengesellschaft, priority 2017, published 2019).

Molecular target: T1, human Bradykinin B1 receptor (Homo sapiens, UniProt P46663)
T1 construct: host or cells: CHO-K1
T1 sequence (P46663 1-353): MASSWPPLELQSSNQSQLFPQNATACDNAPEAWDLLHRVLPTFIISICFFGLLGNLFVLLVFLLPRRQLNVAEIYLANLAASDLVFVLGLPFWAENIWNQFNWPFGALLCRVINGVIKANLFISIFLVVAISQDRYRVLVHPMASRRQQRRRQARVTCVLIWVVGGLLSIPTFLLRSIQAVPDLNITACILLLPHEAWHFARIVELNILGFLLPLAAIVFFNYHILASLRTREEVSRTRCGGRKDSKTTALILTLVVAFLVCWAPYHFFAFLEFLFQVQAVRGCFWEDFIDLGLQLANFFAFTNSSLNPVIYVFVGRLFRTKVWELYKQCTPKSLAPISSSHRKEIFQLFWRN
Assay: Calcium flux Assay (FLIPR) with cells expressing human Bradykinin B1 receptor (hB1)
Assay type: cell-based
Settings: absence of 0.1% BSA in assay buffer; CHO-K1 cell line expressing human B1 receptor; agonist Lys-(Des-Arg)-Bradykinin; read-out: hB1 free IC50
Method: The potency to inhibit the Bradykinin B1 receptor was determined for the compound examples of this invention in a cell-based fluorescent calcium-mobilisation assay. The assay measures the ability of compound examples to inhibit Bradykinin B1 receptor agonist-induced increase of intracellular free Ca^2+ in the cell line expressing Bradykinin B1 receptor. Specifically, calcium indicator-loaded cells are pre-incubated in the absence or presence of different concentrations of compound examples followed by the stimulation with a selective Bradykinin B1 receptor agonist peptide. The change of the intracellular Ca^2+ concentration is monitored with a fluorescent plate reader FLIPR^TETRA®
Calcium flux Assays (FLIPR) with cells expressing human Bradykinin B1 receptor (hB1) Calcium flux Assay (FLIPR) with recombinant cells for Bradykinin B1 receptor antagonist, either in the presence (hB1 IC50) or absence (hB1 free IC50) of 0.1% Bovine Serum Albumin (BSA) in assay buffer.
CHO—K1 cell line expressing human B1 receptor was purchased from Euroscreen (Gosselies, Belgium, with reference name hB1-D1). The cells were grown in Nutrient Mixture Ham's F12 (Sigma) containing 10% Foetal bovine serum (Sigma) and 400 μg/mL G418 (Sigma), 5 μg/mL puromycin (Sigma).
For the calcium flux assay, 80% confluent cells were detached from the culture vessels with Versene (Gibco), and seeded into 384-well plates (Cell binding Surface; Corning, N.Y.; #3683) at a density of 15,000 cells per well. Cells were seeded in a volume of 50 μL in medium without antibiotics and incubated overnight in a humidified atmosphere with 5% CO2 at 37° C. […] The calcium indicator loaded cells were incubated at 37° C. for 2 hrs. Extracellular dye was then removed and each well was filled with 45 μL of assay buffer. Cell plates were kept in dark until used. Example compounds were assayed at 8 concentrations in triplicate. Serial 10-fold dilutions in 100% DMSO were made at a 100-times higher concentration than the final concentration, and then diluted 1:10 in assay buffer. 5 μL of each diluted compound was added to the well of cell plates (yielding final concentration with 1% DMSO), and incubated for 30 min at 28° C. before the addition of B1 receptor agonist on the FLIPR instrument.
Agonist plates contained the agonist Lys-(Des-Arg)-Bradykinin (Bachem, Brackley) at 3.5×EC90 in assay buffer with 1% DMSO. The addition of agonist 20 μl per well to the assay plate was carried out on the FLIPR instrument while continuously monitoring Ca^2+-dependent fluorescence at 538 nm. A peptide antagonist Lys-(Des-Arg-Leu)-Bradykinin (Bachem, Brackley) at 20 μM was used to determine the full inhibition as control.
Peak fluorescence was used to determine the response to agonist obtained at each concentration of example compound by the following equation:
% Response=100*(RFU(example compound)−RFU(control))/(RFU(DMSO)−RFU(control)) • RFU means relative fluorescence units. • Control means full inhibition by the peptide antagonist Lys-(Des-Arg-Leu)-Bradykinin at 20
The response values were plotted against the logarithm of the example compound concentrations. The example compounds were tested in triplicates per plate and mean values were plotted in Excel XLfit to determine IC50 values, percentage of maximal inhibition and the Hill slopes.
IC50 values of example compounds in Calcium flux Assay (FLIPR) as shown in table 1 were determined according to the protocol described above in the absence of 0.1% BSA in assay buffer.

Row | Compound | IC50 [nM]
1 | CCC(C)OC(=O)c1ccc(NC(=O)C2(c3cccc(Cl)c3)CC2)cc1-c1nnn[nH]1 (racemic) [Example 3, sec-Butyl 4-({[1-(3-chlorophenyl)cyclopropyl]carbonyl}amino)-2-(1H-tetrazol-5-yl)benzoate] | 10
2 | CCC(C)OC(=O)c1ccc(NC(=O)C2(c3ccc(C)cc3F)CC2)cc1-c1nnn[nH]1 (racemic) [Example 9, sec-Butyl 4-({[1-(2-fluoro-4-methylphenyl)cycloporopyl]carbonyl}amino)-2-(1H-tetrazol-5-yl)benzoate] | 17
3 | CCC(C)OC(=O)c1ccc(NC(=O)C2(c3ccc(C(F)(F)F)cc3F)CC2)cc1-c1nnn[nH]1 (racemic) [Example 10, sec-Butyl 4-[({1-[2-fluoro-4-(trifluoromethyl)phenyl]cyclopropyl}carbonyl)amino]-2-(1H-tetrazol-5-yl)benzoate] | 4
4 | O=C(OC1CCOC1)c1ccc(NC(=O)C2(c3ccc(C(F)(F)F)cc3F)CC2)cc1-c1nnn[nH]1 (racemic) [Example 18, Tetrahydrofuran-3-yl 4-[({1-[2-fluoro-4-(trifluoromethyl)phenyl]cyclopropyl}carbonyl)amino]-2-(1H-tetrazol-5-yl)benzoate] | 7
5 | COC(C)COC(=O)c1ccc(NC(=O)C2(c3ccc(C(F)(F)F)cc3F)CC2)cc1-c1nnn[nH]1 (racemic) [Example 31, 2-Methoxypropyl 4-[({1-[2-fluoro-4-(trifluoromethyl)phenyl]cyclopropyl}carbonyl)amino]-2-(1H-tetrazol-5-yl)benzoate] | 9
6 | COCC(C)OC(=O)c1ccc(NC(=O)C2(c3ccc(C(F)(F)F)cc3F)CC2)cc1-c1nnn[nH]1 (racemic) [Example 32, 1-Methoxypropan-2-yl 4-[({1-[2-fluoro-4-(trifluoromethyl)phenyl]cyclopropyl}carbonyl)amino]-2-(1H-tetrazol-5-yl)benzoate] | 13
7 | O=C(OC1CCCC1)c1ccc(NC(=O)C2(c3ccc(C(F)(F)F)cc3F)CC2)cc1-c1nnn[nH]1 [Example 6, Cyclopentyl 4-[({1-[2-fluoro-4-(trifluoromethyl)phenyl]cyclopropyl}carbonyl)amino]-2-(1H-tetrazol-5-yl)benzoate] | 9
8 | O=C(OC1CCCC1)c1ccc(NC(=O)C2(c3ccc(OC(F)(F)F)cc3F)CC2)cc1-c1nnn[nH]1 [Example 7, Cyclopentyl 4-[({1-[2-fluoro-4-(trifluoromethoxy)phenyl]cyclopropyl}carbonyl)amino]-2-(1H-tetrazol-5-yl)benzoate] | 5
9 | COCCOC(=O)c1ccc(NC(=O)C2(c3ccc(C(F)(F)F)cc3F)CC2)cc1-c1nnn[nH]1 [Example 17, 2-Methoxyethyl 4-[({1-[2-fluoro-4-(trifluoromethyl)phenyl]cyclopropyl}-carbonyl)amino]-2-(1H-tetrazol-5-yl)benzoate] | 17
10 | O=C(O[C@H]1CCOC1)c1ccc(NC(=O)C2(c3ccc(C(F)(F)F)cc3F)CC2)cc1-c1nnn[nH]1 [Example 19, (3S)-Tetrahydrofuran-3-yl 4-[({1-[2-fluoro-4-(trifluoromethyl)phenyl]cyclopropyl}carbonyl)amino]-2-(1H-tetrazol-5-yl)benzoate] | 13

Continued, values first:

Row | IC50 [nM] | Compound
11 | 21 | CCC(C)OC(=O)c1ccc(NC(=O)C2(c3ccc(F)c(F)c3)CC2)cc1-c1nnn[nH]1 (racemic) [Example 8, sec-Butyl 4-({[1-(3,4-difluorophenyl)cyclopropyl]carbonyl}amino)-2-(1H-tetrazol-5-yl)benzoate]
12 | 3 | CCC(C)OC(=O)c1ccc(NC(=O)C2(c3ccc(OC(F)(F)F)cc3F)CC2)cc1-c1nnn[nH]1 (racemic) [Example 11, sec-Butyl 4-[({1-[2-fluoro-4-(trifluoromethoxy)phenyl]cyclopropyl}carbonyl)amino]-2-(1H-tetrazol-5-yl)benzoate]
13 | 47 | Cc1cccc([C@@H]2C[C@H]2C(=O)Nc2ccc(C(=O)OC3CCCC3)c(-c3nnn[nH]3)c2)c1 (racemic) [Example 13, Cyclopentyl-4-({[2-(3-methylphenyl)cyclopropyl]carbonyl}amino)-2-(1H-tetrazol-5-yl)benzoate]
14 | 341 | COC1CCCN(C(=O)c2ccc(NC(=O)C3(c4ccc(C(F)(F)F)cc4F)CC3)cc2-c2nnn[nH]2)C1 (racemic) [Example 35, 1-[2-Fluoro-4-(trifluoromethyl)phenyl]-N-{4-[(3-methoxypiperidin-1-yl)carbonyl]-3-(1H-tetrazol-5-yl)phenyl}cyclopropanecarboxamide]
15 | 1850 | CCC(C)N(C)C(=O)c1ccc(NC(=O)C2(c3ccc(C(F)(F)F)cc3F)CC2)cc1-c1nnn[nH]1 (single isomer, unassigned) [Example 58, N-sec-butyl-4-[({1-[2-fluoro-4-(trifluoromethyl)phenyl]cyclopropyl}carbonyl)-amino]-N-methyl-2-(1H-tetrazol-5-yl)benzamide]
16 | 136 | CCOC(=O)c1ccc(NC(=O)C2(c3cccc(Cl)c3)CC2)cc1-c1nnn[nH]1 [Example 1, Ethyl 4-({[1-(3-chlorophenyl)cyclopropyl]carbonyl}amino)-2-(1H-tetrazol-5-yl)benzoate]
17 | 21 | O=C(OC1CCCC1)c1ccc(NC(=O)C2(c3cccc(Cl)c3)CC2)cc1-c1nnn[nH]1 [Example 2, Cyclopentyl 4-({[1-(3-chlorophenyl)cyclopropyl]carbonyl}amino)-2-(1H-tetrazol-5-yl)benzoate]
18 | 59 | O=C(OC1CCCC1)c1ccc(NC(=O)C2(c3ccc(F)c(F)c3)CC2)cc1-c1nnn[nH]1 [Example 4, Cyclopentyl 4-({[1-(3,4-difluorophenyl)cyclopropyl]carbonyl}amino)-2-(1H-tetrazol-5-yl)benzoate]
19 | 25 | Cc1ccc(C2(C(=O)Nc3ccc(C(=O)OC4CCCC4)c(-c4nnn[nH]4)c3)CC2)c(F)c1 [Example 5, Cyclopentyl 4-({[1-(2-fluoro-4-methylphenyl)cyclopropyl]carbonyl}amino)-2-(1H-tetrazol-5-yl)benzoate]
20 | 412 | CN(CC1CCCCC1)C(=O)c1ccc(NC(=O)C2(c3ccc(C(F)(F)F)cc3F)CC2)cc1-c1nnn[nH]1 [Example 12, N-(cyclohexylmethyl)-4-[({1-[2-fluoro-4-(trifluoromethyl)phenyl]cyclopropyl}carbonyl)amino]-N-methyl-2-(1H-tetrazol-5-yl)benzamide]
21 | 999 | CC1(OC(=O)c2ccc(NC(=O)C3(c4ccc(C(F)(F)F)cc4F)CC3)cc2-c2nnn[nH]2)CCCC1 [Example 14, 1-Methylcyclopentyl 4-[({1-[2-fluoro-4-(trifluoromethyl)phenyl]cyclopropyl}-carbonyl)amino]-2-(1H-tetrazol-5-yl)benzoate]
22 | 5220 | CCC(C)(C)OC(=O)c1ccc(NC(=O)C2(c3ccc(C(F)(F)F)cc3F)CC2)cc1-c1nnn[nH]1 [Example 15, 2-Methylbutan-2-yl 4-[({1-[2-fluoro-4-(trifluoromethyl)phenyl]cyclopropyl}carbonyl)amino]-2-(1H-tetrazol-5-yl)benzoate]
23 | 5 | O=C(OC1CCCCC1)c1ccc(NC(=O)C2(c3ccc(C(F)(F)F)cc3F)CC2)cc1-c1nnn[nH]1 [Example 16, Cyclohexyl 4-[({1-[2-fluoro-4-(trifluoromethyl)phenyl]cyclopropyl}carbonyl)amino]-2-(1H-tetrazol-5-yl)benzoate]
